Source: US5260257A, “Thermal transfer sheet” (Dai Nippon Printing Co., Ltd., priority 1991, dated 1993)

Columns and labels:
[1] = light fastness test (Example D1 series); type: physicochemical; conditions: Table D1; xenon, 50° C., 70 kJ/m^2
Method: (§1) The light fastness test was conducted as follows.
(§2) Irradiation was conducted by means of a xenon fadeometer Ci35A (manufactured by Atlas) under conditions of a black panel temperature of 50° C. and an integrating irradiation energy of 70 kJ/m^2.
(§3) The percentage fading was determined from a density change around an initial density of 1.0 according to the following equation.
(§4) Percentage fading=(1-I/I0)×100 (%)
(§5) I=optical density after irradiation; and
(§6) I0 =optical density before irradiation.
(§7) .largecircle.: less than 20% in the percentage fading
Δ: 20% or more in the percentage fading

[2] = test system: S. typhimurium TA100, TA98 and TA1538; assay: Ames test (mutagenic test); type: cell-based; conditions: positive if reversion colonies twice or more vs control
Method: Ames test was conducted as a mutagenic test.
Strains used were S. typhimurium TA100, TA98 and TA1538.
When the increase in the reversion colony was twice or more as compared with that in the case of the control, the mutagenicity was judged as positive, while when the increase in the reversion colony was less than twice as compared with that in the case of the control, the mutagenicity was judged as negative.

[3] = ink stability test (precipitation of the dye in the ink observed with the naked eye); type: physicochemical; conditions: Table D1; room temperature (20°±3° C.), 48 hr
Method: The following ink composition for the formation of a dye supporting layer was prepared and heated to 70° C. to completely dissolve the ink.

[4] = light fastness test (xenon fadeometer, percentage fading); type: physicochemical; conditions: 70 kJ/m^2
Method: as §1, §2, §3, §4, §5, §6, §7
X : 20% or more in the percentage fading

[5] = Table C2, dyes of Table C1, 50° C.
[6] = Table B2, dyes of Table B1, 50° C.
[7] = Table A2, dyes of Table A1, 50° C.

Row | SMILES | Light fastness [4, 7] | further results
1 | CCN(CC)c1ccc(N=C2C=C(NC(C)=O)C(=O)C(Cl)=C2C)c(C)c1 [Comp. Ex. D1] | – | Light fastness [1]: .largecircle. (less than 20% in the percentage fading); mutagenicity [2]: positive; stability of ink [3]: large amount of crystal
2 | CCN(CC)c1ccc(N=C2C=C(NC(=O)C3CCCCC3)C(=O)C(Cl)=C2C)c(C)c1 [Comp. Ex. D2] | – | Light fastness [1]: .largecircle. (less than 20% in the percentage fading); mutagenicity [2]: negative; stability of ink [3]: small amount of crystal
3 | CCN(CC)c1ccc(N=C2C=C(NC(=O)C3CC4C=CC3O4)C(=O)C(Cl)=C2C)c(C)c1 (stereo not shown) [Dye No. 21 in Table C1] | – | Light fastness [4, 5]: .largecircle. (less than 20% in the percentage fading)
4 | CCOc1cc(N(CC)CC)ccc1N=C1C=C(NC(=O)C2CC=CCC2)C(=O)C(Cl)=C1C (stereo not shown) [Dye No. 22 in Table B1] | – | Light fastness [4, 6]: .largecircle. (less than 20% in the percentage fading)
5 | CCN(CC)c1ccc(N=C2C=C(NC(=O)C3CC4C=CC3S4)C(=O)C(Cl)=C2C)c(C)c1 (stereo not shown) [Dye No. 22 in Table C1] | – | Light fastness [4, 5]: .largecircle. (less than 20% in the percentage fading)
6 | CCN(CC)c1ccc(N=C2C=C(NC(=O)C3CC4C=CC3S4)C(=O)C=C2NC(C)=O)c(C)c1 (stereo not shown) [Dye No. 23 in Table C1] | – | Light fastness [4, 5]: .largecircle. (less than 20% in the percentage fading)
7 | CCN(CC)c1ccc(N=C2C=C(NC(=O)C3CC4C=CC3N4C)C(=O)C(Cl)=C2C)c(C)c1 (stereo not shown) [Dye No. 24 in Table C1] | – | Light fastness [4, 5]: .largecircle. (less than 20% in the percentage fading)
8 | CCN(CC)c1ccc(N=C2C=C(NC(=O)C3CC3)C(=O)C(Cl)=C2C)c(C)c1 [compound 1] | .largecircle. (less than 20% in the percentage fading) | –
9 | CCN(CCO)c1ccc(N=C2C=C(NC(=O)C3CC3)C(=O)C(Cl)=C2C)c(C)c1 [compound 2] | .largecircle. (less than 20% in the percentage fading) | –
10 | CCN(CC)c1ccc(N=C2C=C(NC(=O)C3CC3)C(=O)C=C2NC(C)=O)c(C)c1 [compound 3] | .largecircle. (less than 20% in the percentage fading) | –
11 | CCOc1cc(N(CC)CC)ccc1N=C1C=CC(=O)C(NC(=O)C2CC2)=C1 [compound 4] | .largecircle. (less than 20% in the percentage fading) | –
12 | CCOc1cc(N(CC)Cc2ccccc2)ccc1N=C1C=C(NC(=O)C2CC2)C(=O)C=C1NC(C)=O [compound 5] | .largecircle. (less than 20% in the percentage fading) | –
13 | CCN(CCNS(C)(=O)=O)c1ccc(N=C2C=C(NC(=O)C3CC3)C(=O)C=C2NC(C)=O)c(C)c1 [compound 6] | .largecircle. (less than 20% in the percentage fading) | –
14 | CCN(CCC#N)c1ccc(N=C2C=C(NC(=O)C3CC3)C(=O)C=C2NS(C)(=O)=O)c(NC(C)=O)c1 [compound 7] | .largecircle. (less than 20% in the percentage fading) | –
15 | CCN(c1ccccc1)c1ccc(N=C2C=C(NC(=O)C3CC3)C(=O)C(Cl)=C2C)c(Cl)c1 [compound 8] | .largecircle. (less than 20% in the percentage fading) | –
16 | CCN(CC)c1ccc(N=C2C=CC(=O)C(NC(=O)C3CC3)=C2)c(NC(C)=O)c1 [compound 9] | .largecircle. (less than 20% in the percentage fading) | –
17 | CCN(CCO)c1ccc(N=C2C=C(NC(=O)C3CC3)C(=O)C=C2NC(C)=O)c(NS(C)(=O)=O)c1 [compound 10] | .largecircle. (less than 20% in the percentage fading) | –
18 | CCN(CC)c1ccc(N=C2C=C(NC(=O)C3CC3)C(=O)C(Cl)=C2C)cc1 [compound 11] | .largecircle. (less than 20% in the percentage fading) | –
19 | CCCCC1CC(C(=O)NC2=CC(=Nc3ccc(N(CC)CC)cc3C)C(C)=C(Cl)C2=O)C1 (stereo not shown) [compound 12] | .largecircle. (less than 20% in the percentage fading) | –
20 | CCN(Cc1ccccc1)c1ccc(N=C2C=C(NC(=O)C3CCCC3)C(=O)C=C2NC(C)=O)c(C)c1 [compound 13] | .largecircle. (less than 20% in the percentage fading) | –
21 | CCN(CC)c1ccc(N=C2C=C(NC(=O)C3CCCC3)C(=O)C(Cl)=C2C)c(NC(C)=O)c1 [compound 14] | .largecircle. (less than 20% in the percentage fading) | –
22 | CCN(CC)c1ccc(N=C2C=C(NC(=O)C3CCCC3)C(=O)C(Cl)=C2C)c(C)c1 [compound 15] | .largecircle. (less than 20% in the percentage fading) | –
23 | CCN(CC)c1ccc(N=C2C=C(NC(=O)C3CCCC3)C(=O)C(Cl)=C2C)cc1 [compound 17] | .largecircle. (less than 20% in the percentage fading) | –
24 | CCN(CCCl)c1ccc(N=C2C=C(NC(=O)C3CCCC3)C(=O)C=C2NC(C)=O)c(NC(=O)NC)c1 [compound 18] | .largecircle. (less than 20% in the percentage fading) | –
25 | CCN(CC)c1ccc(N=C2C=C(NC(=O)c3ccsc3)C(=O)C(Cl)=C2C)c(C)c1 [compound 19] | .largecircle. (less than 20% in the percentage fading) | –
26 | CCN(CC)c1ccc(N=C2C=C(NC(=O)c3ccsc3)C(=O)C(Cl)=C2C)c(NC(C)=O)c1 [compound 20] | .largecircle. (less than 20% in the percentage fading) | –
27 | CCN(CC)c1ccc(N=C2C=C(NC(=O)c3ccsc3)C(=O)C=C2NC(C)=O)c(C)c1 [compound 21] | .largecircle. (less than 20% in the percentage fading) | –
28 | CCN(CCOC)c1ccc(N=C2C=C(NC(=O)c3ccsc3)C(=O)C(Cl)=C2C)c(NC(C)=O)c1 [compound 22] | .largecircle. (less than 20% in the percentage fading) | –
29 | CCN(CC)c1ccc(N=C2C=CC(=O)C(NC(=O)C3CC=CCC3)=C2)c(C)c1 (stereo not shown) [compound 23] | – | Light fastness [4, 6]: .largecircle. (less than 20% in the percentage fading)
30 | CCN(CCNS(C)(=O)=O)c1ccc(N=C2C=C(NC(=O)C3CC=CCC3)C(=O)C(Cl)=C2C)c(C)c1 (stereo not shown) [compound 24] | – | Light fastness [4, 6]: .largecircle. (less than 20% in the percentage fading)
